Type in all cases: cell-based, human
Assay [1] concerns MYB. In words: Splicing RT-qPCR assay, MYB mRNA canonical junction (CJ) and alternative junction (AJ). To be noted: Homo sapiens, read-out: MYB IC50 (decrease in CJ mRNA levels). The essentials:
(§1)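 Cells: A673 (DMEM/10% FBS) or K562 (IMDM/10% FBS). Dose: 11-pt 3-fold, top 10 uM final, ≤0.25% DMSO, 24 h, 37 °C. Readout: RT-qPCR of CJ/AJ exon junctions, ΔΔCt vs housekeeper and DMSO, RQ to % response.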

The test system of another assay is SMN2. In words: Splicing RT-qPCR panel, SMN2 canonical junction (CJ) mRNA. As to conditions: Homo sapiens, read-out: SMN2 IC50 (decrease in CJ mRNA levels). Put shortly: as §1
(In general: Real-time PCR tracks product formation cycle by cycle.)

For assay [2], the system named is MYB. In words: HiBiT protein abundance assay, MYB. To be noted: Homo sapiens, K562, 24 h, modified K562 cells. The essentials:
(§2)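 HiBiT knock-in K562, 10000 cells/well, 24 h cpd at 37 °C/5% CO2; 10-pt 3-fold series from 10 μM final; DMSO ≤0.25%. Lytic detection, luminescence read. 4PL fit → IC50 vs DMSO control; unmodified K562 = baseline.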
Background: The HiBiT peptide binds its large partner to form an active luciferase.

A further assay has as its system HTT. Nature of the assay: HiBiT protein abundance assay, HTT. To be noted: Homo sapiens, K562, 24 h, modified K562 cells. The essentials: as §2
The test system of the next assay is Target C. In words: HiBiT protein abundance assay, Target C. To be noted: Homo sapiens, K562, 24 h, modified K562 cells. The essentials: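 Luminescence from lytic HiBiT detection, taken after 24 h compound exposure at 37 °C, reports tagged protein abundance in knock-in cells seeded at 10000 cells/well. Doses spanned 10 points, 3-fold steps, top 10 μM final. A four-parameter logistic fit gave the 50% abundance concentration (IC50).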

Setting [3] is: RT-qPCR panel, canonical junction mRNA, compound concentration having 50% response in CJ decrease.
Setting [4] is: gene panel, CJ qPCR, protocol of Example 142.

This note sets out measurements from patent US20240368163A1, “COMPOUNDS AND METHODS FOR MODULATING SPLICING” (REMIX THERAPEUTICS INC., priority 2021, published 2024).

Read-outs that look alike come from different tables or passages of the source.

As for `Cc1nc(-c2ccc(-c3cnc(N(C)[C@@H]4C[C@H]5CCC[C@@H](C4)N5)nn3)c3scnc23)cs1` [Compound 579], the IC50 – broadly, the concentration at which inhibition is half-maximal – in the assay on MYB [1] (setting [3]) fell in the range of 1000 to 10000 nM; with SMN2 (setting [3]) it was 100 to 1000 nM; with MYB [2] (Table 13A) it was 1000 to 10000 nM; in the assay on HTT (Table 13A), 100 to 1000 nM; in the assay with Target C (Table 13A), 100 to 1000 nM.
`Cc1cc(-c2ccc(-c3cnc(N(C)[C@@H]4C[C@H]5CCC[C@@H](C4)N5)nn3)c3scnc23)sn1` [Compound 580]: the IC50 was 100 to 1000 nM with MYB [1] (setting [3]); less than 100 nM in the assay with SMN2 (setting [3]); 100 to 1000 nM in the assay on MYB [2] (Table 13A); less than 100 nM in the assay with HTT (Table 13A); less than 100 nM in the assay with Target C (Table 13A).
In the case of `CC(C)(C)[C@H]1CN(c2ncc(-c3ccc(-n4cccn4)c4[nH]ncc34)nn2)CCN1` [Compound 581], the half-inhibitory concentration (IC50) is 100 to 1000 nM with MYB [1] (setting [3]); 100 to 1000 nM with SMN2 (setting [3]); 100 to 1000 nM in the assay on MYB [2] (Table 13A); less than 100 nM with HTT (Table 13A); less than 100 nM in the assay on Target C (Table 13A).
Turning to `COc1nc(-c2ccc(N(C)[C@@H]3C[C@H]4CC[C@@H](C3)N4)nn2)ccc1-c1cn[nH]c1` [Compound 906], the IC50 is 100 to 1000 nM in the assay on MYB [1] (setting [4]); less than 100 nM in the assay with SMN2 (setting [4]); less than 100 nM in the assay with MYB [2] (Table 13B); less than 100 nM in the assay with HTT (Table 13B); less than 100 nM with Target C (Table 13B).
As for `CN(c1ccc(-c2ccc(-c3cn[nH]c3)cn2)nn1)[C@@H]1C[C@H]2CC[C@@H](C1)N2` [Compound 915], the IC50 was 100 to 1000 nM in the assay on MYB [1] (setting [4]); more than 10000 nM in the assay with SMN2 (setting [4]); 1000 to 10000 nM in the assay on MYB [2] (Table 13B); 100 to 1000 nM in the assay with HTT (Table 13B); 1000 to 10000 nM in the assay with Target C (Table 13B).
With `COc1nc(-c2ccc(OC3CC(C)(C)NC(C)(C)C3)nn2)ccc1-c1cn[nH]c1` [Compound 917], the IC50 with MYB [1] (setting [4]) is 100 to 1000 nM; in the assay on SMN2 (setting [4]), less than 100 nM; with MYB [2] (Table 13B), 100 to 1000 nM; in the assay with HTT (Table 13B), less than 100 nM; in the assay with Target C (Table 13B) it was less than 100 nM.
For `COc1nc(-c2ccc(OC3CC(C)(C)NC(C)(C)C3)nn2)ccc1-c1cnn(C)c1` [Compound 918], the half-maximal inhibitory concentration (IC50) in the assay on MYB [1] (setting [4]) was 100 to 1000 nM; in the assay with SMN2 (setting [4]), less than 100 nM; in the assay on MYB [2] (Table 13B), 100 to 1000 nM; with HTT (Table 13B), less than 100 nM; with Target C (Table 13B), 100 to 1000 nM.
Turning to `COc1nc(-c2ccc(N(C)C3CC(C)(C)NC(C)(C)C3)nn2)ccc1-c1cn[nH]c1` [Compound 919], the IC50 with MYB [1] (setting [4]) was 100 to 1000 nM; with SMN2 (setting [4]), less than 100 nM; in the assay with MYB [2] (Table 13B), 100 to 1000 nM; in the assay with HTT (Table 13B), less than 100 nM; in the assay on Target C (Table 13B), less than 100 nM.
As for `COc1nc(-c2ccc(N(C)C3CC(C)(C)NC(C)(C)C3)nn2)ccc1-c1cnn(C)c1` [Compound 920], the IC50 in the assay on MYB [1] (setting [4]) is 100 to 1000 nM; in the assay with SMN2 (setting [4]), less than 100 nM; in the assay on MYB [2] (Table 13B), 100 to 1000 nM; with HTT (Table 13B), less than 100 nM; in the assay on Target C (Table 13B), 100 to 1000 nM.
For the compound `CN(c1ccc(-c2ccc(-c3cn[nH]c3)c(F)n2)nn1)[C@@H]1C[C@H]2CC[C@@H](C1)N2` [Compound 922], the half-maximal inhibitory concentration (IC50) with MYB [1] (setting [4]) is 100 to 1000 nM; in the assay with SMN2 (setting [4]), less than 100 nM; in the assay on MYB [2] (Table 13B), less than 100 nM; with HTT (Table 13B) it was less than 100 nM; in the assay with Target C (Table 13B), less than 100 nM.
Consider `CN(c1ccc(-c2ccc(-c3cn[nH]c3)c(C#N)n2)nn1)[C@@H]1C[C@H]2CC[C@@H](C1)N2` [Compound 930], for which the IC50 was 100 to 1000 nM in the assay with MYB [1] (setting [4]); less than 100 nM in the assay on SMN2 (setting [4]); less than 100 nM in the assay on MYB [2] (Table 13B); less than 100 nM with HTT (Table 13B); less than 100 nM in the assay with Target C (Table 13B).
With `COc1nc(-c2ccc(N(C)[C@@H]3C[C@H]4CC[C@@H](C3)N4)nn2)cc(F)c1-c1cn[nH]c1` [Compound 931], the IC50 with MYB [1] (setting [4]), in the assay with SMN2 (setting [4]), in the assay with MYB [2] (Table 13B), in the assay with HTT (Table 13B) and in the assay on Target C (Table 13B) was less than 100 nM throughout.
With `CN(c1ccc(-c2ccc(-c3cn[nH]c3)c(OC3CC3)n2)nn1)[C@@H]1C[C@H]2CC[C@@H](C1)N2` [Compound 939], the IC50 in the assay with MYB [1] (setting [4]) was 100 to 1000 nM; with SMN2 (setting [4]), less than 100 nM; with MYB [2] (Table 13B), less than 100 nM; in the assay with HTT (Table 13B), less than 100 nM; with Target C (Table 13B), less than 100 nM.
In the case of `COc1cc(-c2ccc(-c3ccc(N(C)[C@@H]4C[C@H]5CC[C@@H](C4)N5)nn3)nc2OC)ncn1` [Compound 954], the IC50 in the assay with MYB [1] (setting [4]) lay in the range of 1000 to 10000 nM; in the assay with SMN2 (setting [4]) it was 100 to 1000 nM; with MYB [2] (Table 13B), 1000 to 10000 nM; with HTT (Table 13B), 100 to 1000 nM; in the assay with Target C (Table 13B) it was 1000 to 10000 nM.
With `CN(c1ccc(-c2ccc(-c3cn[nH]c3)c(OC(F)F)n2)nn1)[C@@H]1C[C@H]2CC[C@@H](C1)N2` [Compound 955], the IC50 in the assay on MYB [1] (setting [4]) is 100 to 1000 nM; in the assay with SMN2 (setting [4]), less than 100 nM; with MYB [2] (Table 13B), less than 100 nM; with HTT (Table 13B) it was less than 100 nM; in the assay with Target C (Table 13B), less than 100 nM.
As to `COc1nc(-c2ccc(N3CCC(NC(C)(C)C)C3)nn2)ccc1-c1cn[nH]c1` (centres unmarked) [Compound 956], the half-maximal inhibitory concentration (IC50) with MYB [1] (setting [4]) is 100 to 1000 nM; with SMN2 (setting [4]), less than 100 nM; with MYB [2] (Table 13B), 100 to 1000 nM; in the assay on HTT (Table 13B), less than 100 nM; in the assay on Target C (Table 13B) it was 100 to 1000 nM.
Consider `COc1nc(-c2ccc(N(C)[C@@H]3C[C@H]4CC[C@@H](C3)N4)nn2)ccc1-c1ccnc(O)c1` [Compound 961], for which the concentration for half-maximal inhibition (IC50) lay in the range of 100 to 1000 nM with MYB [1] (setting [4]); 100 to 1000 nM with SMN2 (setting [4]); 1000 to 10000 nM with MYB [2] (Table 13B); 100 to 1000 nM with HTT (Table 13B); 100 to 1000 nM in the assay on Target C (Table 13B).
For the compound `COc1nc(-c2ccc(O[C@@H]3C[C@H]4CC[C@@H](C3)N4)nn2)ccc1-c1cnc(C)s1` [Compound 962], the half-inhibitory concentration (IC50) in the assay on MYB [1] (setting [4]), in the assay with SMN2 (setting [4]), in the assay on MYB [2] (Table 13B), with HTT (Table 13B) and with Target C (Table 13B) was 100 to 1000 nM each time.
As to `COc1nc(-c2ccc(OC3CC(C)(C)NC(C)(C)C3)nn2)cc(F)c1-c1cn[nH]c1` [Compound 965], the half-maximal inhibitory concentration (IC50) was 100 to 1000 nM in the assay with MYB [1] (setting [4]); less than 100 nM in the assay on SMN2 (setting [4]); 100 to 1000 nM in the assay with MYB [2] (Table 13B); less than 100 nM with HTT (Table 13B); less than 100 nM in the assay on Target C (Table 13B).
With `CCOc1nc(-c2ccc(OC3CC(C)(C)NC(C)(C)C3)nn2)cc(F)c1-c1cn[nH]c1` [Compound 966], the IC50 in the assay with MYB [1] (setting [4]) is 100 to 1000 nM; with SMN2 (setting [4]) it was less than 100 nM; with MYB [2] (Table 13B), less than 100 nM; in the assay on HTT (Table 13B), less than 100 nM; in the assay with Target C (Table 13B), less than 100 nM.
With `CCOc1nc(-c2ccc(OC3CC(C)(C)NC(C)(C)C3)nn2)ccc1-c1cn[nH]c1` [Compound 967], the IC50 is 100 to 1000 nM with MYB [1] (setting [4]); less than 100 nM in the assay with SMN2 (setting [4]); 100 to 1000 nM in the assay with MYB [2] (Table 13B); less than 100 nM with HTT (Table 13B); less than 100 nM in the assay on Target C (Table 13B).
As to `COc1nc(-c2ccc(OC3CC4CC(F)(F)C(C3)N4)nn2)cc(F)c1-c1cn[nH]c1` (centres unmarked) [Compound 969], the IC50 with MYB [1] (setting [4]) was more than 10000 nM; in the assay on SMN2 (setting [4]) it was 1000 to 10000 nM; in the assay on MYB [2] (Table 13B), 100 to 1000 nM; in the assay with HTT (Table 13B) it was 100 to 1000 nM; in the assay on Target C (Table 13B), 100 to 1000 nM.
